Test results: patent US8236785B2, “Method of treating or preventing infertility in a female mammal and pharmaceutical kit for use in such method” (Pantarhei Bioscience B.V., priority 2007, dated 2012)

Legend:
[1] = tested on: premature LH-surge; test: Open-label uncontrolled clinical trial of premature LH-surge prevention in women undergoing COH/IVF; assay type: in vivo; details: daily oral 40 mg
Description: An open-label, uncontrolled, single centre clinical trial is performed to investigate the efficacy, safety and tolerability of premature LH-surge prevention in 10 women undergoing IVF treatment for infertility by Controlled Ovarian Hyperstimulation (COH), using a daily oral dosage of 40 mg estetrol (E4) from day 6 of FSH treatment up to and including the day of hCG administration to resume meiosis and induce lutëinisation. Oocytes are retrieved 30-38 hours after hCG administration, fertilised in vitro and two days later no more than two embryos are transferred to the uterus of the patient. Standard luteal support is prescribed.
Ultrasonographic monitoring of follicle growth and endometrial thickness are performed during this treatment procedure including extensive and repeated hormonal analysis and measurement of E4 levels extending into the luteal phase after embryo transfer.

[2] = molecular target: ERβ receptor (Homo sapiens, UniProt Q92731); test: Estrogen receptor affinity; assay type: binding
Sequence of ERβ receptor (Q92731 whole entry): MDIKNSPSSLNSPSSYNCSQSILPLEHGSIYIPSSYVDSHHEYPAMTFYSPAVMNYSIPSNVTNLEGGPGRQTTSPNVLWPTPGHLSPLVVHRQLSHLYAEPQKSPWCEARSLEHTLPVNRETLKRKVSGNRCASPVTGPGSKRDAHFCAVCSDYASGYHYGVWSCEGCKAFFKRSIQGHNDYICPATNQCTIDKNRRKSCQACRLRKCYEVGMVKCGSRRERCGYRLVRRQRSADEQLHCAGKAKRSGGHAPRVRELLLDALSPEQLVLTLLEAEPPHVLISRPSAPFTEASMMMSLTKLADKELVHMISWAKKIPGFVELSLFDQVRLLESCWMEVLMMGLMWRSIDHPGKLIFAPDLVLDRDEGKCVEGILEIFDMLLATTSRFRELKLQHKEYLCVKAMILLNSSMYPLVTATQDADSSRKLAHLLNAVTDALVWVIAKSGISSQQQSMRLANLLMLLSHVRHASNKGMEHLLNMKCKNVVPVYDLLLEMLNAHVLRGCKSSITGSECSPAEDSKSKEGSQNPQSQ

[3] = molecular target: T1, ERα receptor (Homo sapiens, UniProt P03372); test: Estrogen receptor affinity; assay type: binding
T1 sequence (P03372 1-595): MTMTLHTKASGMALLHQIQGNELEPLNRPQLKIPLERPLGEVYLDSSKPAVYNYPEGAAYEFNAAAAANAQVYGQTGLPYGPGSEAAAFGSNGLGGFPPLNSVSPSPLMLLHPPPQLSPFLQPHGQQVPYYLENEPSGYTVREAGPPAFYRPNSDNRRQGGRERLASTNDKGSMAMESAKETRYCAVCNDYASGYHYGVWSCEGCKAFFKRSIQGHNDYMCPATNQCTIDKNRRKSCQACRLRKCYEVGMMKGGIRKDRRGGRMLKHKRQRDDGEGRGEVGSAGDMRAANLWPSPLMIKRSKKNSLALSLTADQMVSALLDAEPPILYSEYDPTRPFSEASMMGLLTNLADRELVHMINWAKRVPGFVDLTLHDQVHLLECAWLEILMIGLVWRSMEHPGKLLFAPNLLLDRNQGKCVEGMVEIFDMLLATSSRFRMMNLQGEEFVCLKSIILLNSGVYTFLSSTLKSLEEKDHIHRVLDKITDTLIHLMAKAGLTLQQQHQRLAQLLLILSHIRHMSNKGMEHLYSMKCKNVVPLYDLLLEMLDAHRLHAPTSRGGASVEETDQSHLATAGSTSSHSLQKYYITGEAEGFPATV

[4] = tested on: premature LH-surge; test: Randomised controlled dose-finding clinical trial of premature LH-surge prevention in COH/IVF, E4 versus ganirelix; assay type: in vivo, women
Description: An open-label, randomised, controlled, dose-finding, multi-centre clinical trial is performed to investigate and compare the efficacy, safety and tolerability of premature LH-surge prevention in women undergoing COH/IVF using either E4 in an oral dosage of 1, 5, 10, 20, 40 or 80 mg per day or a daily subcutaneous injection of 0.25 mg ganirelix. Group size is 30 women, so in total 210 patients participate in the trial. E4/ganirelix treatment is started on day 6 of FSH treatment up to and including the day of hCG administration. Further procedures are similar to example 1.

affinity for the ERβ receptor [2]: relatively low affinity
affinity for the ERα receptor [3]: relatively high affinity
SMILES: C[C@]12CC[C@@H]3c4ccc(O)cc4CC[C@H]3[C@@H]1[C@@H](O)[C@@H](O)[C@@H]2O [estetrol, 1,3,5 (10)-estratrien-3,15α,16α,17β-tetrol]
tolerability / side-effects [1]: well tolerated without significant side-effects
prevention of a premature LH-surge ([1]; from day 6 of FSH treatment up to and including day of hCG, 10 women): efficacious in preventing a premature LH-surge
vital pregnancies ([1]; COH/IVF with embryo transfer): Vital pregnancies occur
prevention of premature LH-surges compared with ganirelix ([4]; higher oral dosages vs daily subcutaneous 0.25 mg ganirelix): equally effective to parenteral ganirelix
prevention of premature LH-surges ([4]; oral 1, 5, 10, 20, 40 or 80 mg per day): dose dependent prevention of premature LH-surges
tolerability / side-effects ([4]; oral 1-80 mg per day): well tolerated and without significant side-effects
vital pregnancy rates compared with ganirelix ([4]; oral E4 vs daily subcutaneous 0.25 mg ganirelix): trend to be superior to ganirelix treated patients
